Patent publication US12336981B2, “Compounds and compositions for the inhibition of NAMPT” (Valo Health, Inc., priority 2010, dated 2025)
pIC50: −log10 of the molar value. Like-named read-outs stand apart in the source and are kept apart here.

Columns and labels:
[1] = target: T1, NAMPT (Homo sapiens, UniProt P43490); assay: Biochemical inhibition assay: NAMPT enzymatic reaction, NMN quantified by mass spectrometry; conditions: read-out: Biochem IC50
T1 construct: His tag; host or cells: E. coli
T1 sequence (P43490 whole entry): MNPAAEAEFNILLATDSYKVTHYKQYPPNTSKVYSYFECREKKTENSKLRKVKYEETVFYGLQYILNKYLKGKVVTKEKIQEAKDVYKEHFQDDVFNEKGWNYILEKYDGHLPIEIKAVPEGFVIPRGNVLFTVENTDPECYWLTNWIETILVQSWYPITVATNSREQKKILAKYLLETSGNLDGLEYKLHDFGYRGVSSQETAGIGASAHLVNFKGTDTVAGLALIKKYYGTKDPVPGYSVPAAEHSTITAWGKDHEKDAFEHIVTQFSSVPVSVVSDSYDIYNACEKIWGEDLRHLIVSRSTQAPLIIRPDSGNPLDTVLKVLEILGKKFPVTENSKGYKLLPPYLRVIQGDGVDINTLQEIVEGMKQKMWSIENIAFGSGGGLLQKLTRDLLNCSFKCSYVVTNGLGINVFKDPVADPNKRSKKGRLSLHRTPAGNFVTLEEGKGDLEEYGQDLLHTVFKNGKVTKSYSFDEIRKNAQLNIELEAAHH
In short: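 Inhibition of E. coli-expressed His-tagged human NAMPT, measured as NMN formation by mass spectrometry after a 30 min room-temperature reaction containing 1 μM NAM, 100 μM PRPP and 2.5 mM ATP.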

[2] = test system: A2780 cells; assay: In-vitro cell proliferation assay (SRB), A2780 cells; assay type: cell-based; conditions: A2780 cells, 72 hours, read-out: A2780 IC50
In short: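 Growth inhibition was derived from background-corrected SRB absorbance (570 nm), measured on cells fixed in 6% TCA after three days of compound treatment under 5% CO2 at 37° C.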

[3] = Homo sapiens, A2780, 72 h, SRB assay

Row | SMILES | pIC50 ([1]; NAMPT enzymatic assay) | pIC50 ([2]; SRB) | pIC50 ([1]; NAMPT enzymatic reaction) | pIC50 ([2]; Homo sapiens, A2780, 72 h, SRB) | pIC50 [2, 3]
1 | COCc1cccc(S(=O)(=O)c2ccc(CNC(=O)c3cnc4[nH]ncc4c3)cc2)c1 [N-[(4-{[3-(methoxymethyl)benzene]sulfonyl}phenyl)methyl]-1H-pyrazolo[3,4-b]pyridine-5-carboxamide] | 7.41 | 7.40 | – | – | –
2 | CCCOc1cccc(S(=O)(=O)c2ccc(CNC(=O)c3cnc4[nH]ncc4c3)cc2)c1 [N-({4-[(3-propoxybenzene)sulfonyl]phenyl}methyl)-1H-pyrazolo[3,4-b]pyridine-5-carboxamide] | – | – | 7.52 | 7.39 | –
3 | O=C(NCc1ccc(S(=O)(=O)c2cc(F)ccc2CO)cc1)c1cnc2[nH]ncc2c1 [N-[(4-{[5-fluoro-2-(hydroxymethyl)benzene]sulfonyl}phenyl)methyl]-1H-pyrazolo[3,4-b]pyridine-5-carboxamide] | 6.96 | – | – | 6.00 to 7.00 | –
4 | COc1cc(Cl)ccc1S(=O)(=O)c1ccc(CNC(=O)c2cc3ccncc3s2)cc1 [N-({4-[(4-chloro-2-methoxybenzene)sulfonyl]phenyl}methyl)thieno[2,3-c]pyridine-2-carboxamide] | – | – | 8.00 | – | 8.42
5 | COc1ccc(S(=O)(=O)c2ccc(CNC(=O)c3cc4ccncc4o3)cc2)nc1 [N-{[4-(5-methoxypyridine-2-sulfonyl)phenyl]methyl}furo[2,3-c]pyridine-2-carboxamide] | 8.10 | – | – | 7.50 | –
6 | O=C(NCc1ccc(S(=O)(=O)c2c(F)cccc2Cl)cc1)c1cc2cnccc2[nH]1 | – | – | 6.94 | 7.43 | –
7 | O=C(NCc1ccc(S(=O)(=O)c2ccc(Cl)cc2C(F)(F)F)cc1)c1ccc2nccn2c1 | 7.70 | – | – | 8.07 | –
8 | CCCCOc1ccc(S(=O)(=O)c2ccc(CNC(=O)c3cc4cnccc4[nH]3)cc2)cc1Cl | – | – | 7.75 | 7.91 | –
9 | COc1cc(S(=O)(=O)c2ccc(CNC(=O)c3cc4ccncc4o3)cc2)ccc1F | – | – | 8.11 | 8.15 | –
10 | CCOc1ccccc1S(=O)(=O)c1ccc(CNC(=O)c2cc3ccncc3s2)cc1 [N-({4-[(2-ethoxybenzene)sulfonyl]phenyl}methyl)thieno[2,3-c]pyridine-2-carboxamide] | – | – | 8.70 | – | 9.10
11 | Cc1ccc(S(=O)(=O)c2ccc(CNC(=O)c3cnc4[nH]ncc4c3)cc2)c(Cl)c1 [N-({4-[(2-chloro-4-methylbenzene)sulfonyl]phenyl}methyl)-1H-pyrazolo[3,4-b]pyridine-5-carboxamide] | – | – | 8.30 | 8.56 | –
12 | Cn1cc2cc(S(=O)(=O)c3ccc(CNC(=O)c4cc5ccncc5s4)cc3)ccc2n1 [N-{[4-(2-methyl-2H-indazole-5-sulfonyl)phenyl]methyl}thieno[2,3-c]pyridine-2-carboxamide] | 8.26 | – | – | 8.48 | –
13 | COc1cc(F)cc(S(=O)(=O)c2ccc(CNC(=O)c3cnc4[nH]ncc4c3)cc2)c1 | – | – | 8.36 | 8.20 | –
14 | COc1cc(S(=O)(=O)c2ccc(CNC(=O)c3cc4cnccc4[nH]3)cc2)ccc1C | – | – | 8.10 | 8.52 | –
15 | Cc1cc(C(F)(F)F)ccc1S(=O)(=O)c1ccc(CNC(=O)c2cnc3[nH]ncc3c2)cc1 [N-[(4-{[2-methyl-4-(trifluoromethyl)benzene]sulfonyl}phenyl)methyl]-1H-pyrazolo[3,4-b]pyridine-5-carboxamide] | 6.00 to 7.00 | – | – | 7.13 | –
16 | CC(=O)c1cccc(S(=O)(=O)c2ccc(CNC(=O)c3cc4ccncc4s3)cc2)c1 [N-({4-[(3-acetylbenzene)sulfonyl]phenyl}methyl)thieno[2,3-c]pyridine-2-carboxamide] | – | – | 8.40 | – | 8.59
17 | O=C(NCc1ccc(S(=O)(=O)c2ccc3c(c2)OCCO3)cc1)c1cc2ccncc2o1 [N-{[4-(2,3-dihydro-1,4-benzodioxine-6-sulfonyl)phenyl]methyl}furo[2,3-c]pyridine-2-carboxamide] | 8.26 | – | – | 8.21 | –
18 | O=C(NCc1ccc(S(=O)(=O)c2c(Cl)cccc2Cl)cc1)c1ccc2nccn2c1 | – | – | 8.92 | 7.73 | –
19 | O=C(NCc1ccc(S(=O)(=O)c2ccccc2)cc1)c1cc(-c2ccncc2)n[nH]1 [N-{[4-(benzenesulfonyl)phenyl]methyl}-3-(pyridin-4-yl)-1H-pyrazole-5-carboxamide] | – | – | 5.50 | – | 4.67
20 | O=C(NCc1ccc(S(=O)(=O)c2csc(-c3cccc(F)c3)n2)cc1)c1cc2ccncc2s1 [N-({4-[2-(3-fluorophenyl)-1,3-thiazole-4-sulfonyl]phenyl}methyl)thieno[2,3-c]pyridine-2-carboxamide] | 8.18 | – | – | 7.61 | –
21 | CC(C)c1cccc(S(=O)(=O)c2ccc(CNC(=O)c3cnc4nccn4c3)cc2)c1 | 8.54 | – | – | 8.28 | –
22 | CCCCOc1cc(F)ccc1S(=O)(=O)c1ccc(CNC(=O)c2cnc3nccn3c2)cc1 | – | – | 8.14 | 7.13 | –

Row | SMILES | pIC50 ([1]; NAMPT enzymatic assay) | pIC50 ([2]; SRB) | pIC50 ([1]; NAMPT enzymatic reaction) | pIC50 ([2]; Homo sapiens, A2780, 72 h, SRB) | pIC50 [2, 3]
23 | COc1ccccc1S(=O)(=O)c1ccc(CNC(=O)c2cnc3nccn3c2)cc1 [N-({4-[(2-methoxybenzene)sulfonyl]phenyl}methyl)imidazo[1,2-a]pyrimidine-6-carboxamide] | – | – | 8.41 | 7.13 | –
24 | CCCCc1ccc(S(=O)(=O)c2ccc(CNC(=O)c3cc4ccncc4o3)cc2)cc1 [N-({4-[(4-butylbenzene)sulfonyl]phenyl}methyl)furo[2,3-c]pyridine-2-carboxamide] | – | – | 7.74 | 7.58 | –
25 | COc1ccc(OC)c(S(=O)(=O)c2ccc(CNC(=O)c3cc4ccncc4s3)cc2)c1OC [N-({4-[(2,3,6-trimethoxybenzene)sulfonyl]phenyl}methyl)thieno[2,3-c]pyridine-2-carboxamide] | 7.92 | – | – | 8.26 | –
26 | COc1cc(Cl)cc(S(=O)(=O)c2ccc(CNC(=O)c3cnc4nccn4c3)cc2)c1 | – | – | 8.89 | 9.10 | –
27 | N#Cc1ccc(S(=O)(=O)c2ccc(CNC(=O)c3ccc4nccn4c3)cc2)cc1 | – | – | 7.80 | 7.85 | –
28 | O=C(NCc1ccc(S(=O)(=O)c2cncc(Cl)c2)cc1)c1cnc2[nH]ncc2c1 [N-{[4-(5-chloropyridine-3-sulfonyl)phenyl]methyl}-1H-pyrazolo[3,4-b]pyridine-5-carboxamide] | 7.62 | – | – | 8.21 | –
29 | O=C(NCc1ccc(S(=O)(=O)c2cccc(C(F)(F)F)n2)cc1)c1cnc2[nH]ncc2c1 [N-({4-[6-(trifluoromethyl)pyridine-2-sulfonyl]phenyl}methyl)-1H-pyrazolo[3,4-b]pyridine-5-carboxamide] | 7.62 | – | – | 7.95 | –
30 | O=C(NCc1ccc(S(=O)(=O)c2cnc3n2CCCCC3)cc1)c1cc2ccncc2o1 [N-[(4-{5H,6H,7H,8H,9H-imidazo[1,2-a]azepine-3-sulfonyl}phenyl)methyl]furo[2,3-c]pyridine-2-carboxamide] | 8.22 | – | – | 8.24 | –
31 | O=C(NCc1ccc(S(=O)(=O)c2cc(Cl)cc(Cl)c2)cc1)c1cc2cnccc2[nH]1 | – | – | 9.00 | 9.40 | –
32 | COc1ccc(S(=O)(=O)c2ccc(CNC(=O)c3cc4ccncc4o3)cc2)cc1 [N-({4-[(4-methoxybenzene)sulfonyl]phenyl}methyl)furo[2,3-c]pyridine-2-carboxamide] | – | – | 8.26 | 8.22 | –
33 | O=C(NCc1ccc(S(=O)(=O)CCc2ccccc2)cc1)C1=Nc2ccncc2C1 [N-({4-[(2-phenylethane)sulfonyl]phenyl}methyl)-1H-pyrrolo[3,2-c]pyridine-2-carboxamide] | – | – | 7.96 | – | 7.66
34 | COc1ccc(S(=O)(=O)c2ccc(CNC(=O)c3cnc4[nH]ncc4c3)cc2)cc1Cl | – | – | 8.40 | 8.44 | –
35 | O=C(NCc1ccc(S(=O)(=O)c2ccccc2)cc1)c1cc(-c2cccnc2)no1 [N-{[4-(benzenesulfonyl)phenyl]methyl}-3-(pyridin-3-yl)-1,2-oxazole-5-carboxamide] | – | – | 7.48 | – | < 4.52
36 | O=C(NCc1ccc(S(=O)(=O)c2ccc(Cn3ccnc3)cc2)cc1)c1cc2ccncc2s1 | 8.28 | – | – | 7.91 | –
37 | CCOc1ccc(Cl)cc1S(=O)(=O)c1ccc(CNC(=O)c2cc3ccncc3s2)cc1 | – | – | 8.57 | 9.30 | –
38 | COCc1cccc(S(=O)(=O)c2ccc(CNC(=O)c3cc4ccncc4o3)cc2)c1 | 7.73 | – | – | 7.87 | –
39 | O=C(NCc1ccc(S(=O)(=O)c2ccccc2CN2CCOCC2)cc1)c1cc2cnccc2[nH]1 [N-[(4-{[2-(morpholin-4-ylmethyl)benzene]sulfonyl}phenyl)methyl]-1H-pyrrolo[3,2-c]pyridine-2-carboxamide] | – | – | 7.47 | – | 8.22
40 | O=C(NCc1ccc(S(=O)(=O)c2ccc3c(c2)OCO3)cc1)c1cnc2nccn2c1 [N-{[4-(2H-1,3-benzodioxole-5-sulfonyl)phenyl]methyl}imidazo[1,2-a]pyrimidine-6-carboxamide] | 8.52 | – | – | 7.93 | –
41 | CC(=O)c1ccccc1NS(=O)(=O)c1ccc(CNC(=O)c2cc3cnccc3[nH]2)cc1 [N-({4-[(2-acetylphenyl)sulfamoyl]phenyl}methyl)-1H-pyrrolo[3,2-c]pyridine-2-carboxamide] | – | – | 8.30 | – | 8.30
42 | COc1cccc(S(=O)(=O)c2ccc(CNC(=O)c3cc4cnccc4[nH]3)cc2)c1OC | – | – | 7.93 | 8.31 | –
43 | Cc1ccncc1S(=O)(=O)c1ccc(CNC(=O)c2ccc3nccn3c2)cc1 [N-{[4-(4-methylpyridine-3-sulfonyl)phenyl]methyl}imidazo[1,2-a]pyridine-6-carboxamide] | 7.18 | – | – | 7.18 | –
44 | O=C(NCc1ccc(S(=O)(=O)c2cccc(N3CCOCC3)c2)cc1)c1ccc2nccn2c1 | 8.11 | – | – | 8.48 | –
